In general, IC50 refers to the concentration that gives 50% inhibition.

The source made the active and inactive calls. No rule for the calls is given here.

The experiment deals with Small ubiquitin-related modifier 1 (Homo sapiens) (UniProt P63165). Kind of experiment: SUMO1 protein-protein binding blockers, potency – biochemical, FRET, dose response (AID 624383). The conditions noted are these: SUMO1 protein-protein interaction, in vitro.
Chain of Small ubiquitin-related modifier 1 (Homo sapiens) (P63165 whole entry, looked up): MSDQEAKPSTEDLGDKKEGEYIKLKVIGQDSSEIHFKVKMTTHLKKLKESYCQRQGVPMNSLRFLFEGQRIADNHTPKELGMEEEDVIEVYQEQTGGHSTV
For the molecule `C[c-]1[c-](C)[c-](C)[c-](C)[c-]1C.[Fe].c1cc2nccc(N3CCCC3)[c-]2c1` (stereo not drawn), the IC50 entry was “inactive”.
Next, `C=Cc1c(C)c2cc3[nH]c(cc4nc(cc5nc(cc1[nH]2)C(C)=C5CCC(=O)O)C(CCC(=O)O)=C4C)c(C)c3C=C`: 1810 nM.
Next, `CCN(CC)P(=O)(NC(=O)C(Cl)(Cl)Cl)N(CC)CC.[Cl-].[Cl-].[Cl-].[Nd+3]`: 601 nM.
